Data set [1] relates to Staphylococcus aureus ATCC 25923 or ATCC 29213. Briefly: MIC, broth dilution (CA-SFM). It is filed as cell-based. Conditions: Staphylococcus aureus ATCC 25923 or ATCC 29213; mean (n = 3); read-out: MIC S. a. On the technique in general: Broth dilution looks for growth in wells or tubes with falling amounts of substance.
The test system of a further data set is MRSA ATCC 43300. Description: MIC, CO-ADD broth microdilution. It is filed as cell-based, Staphylococcus aureus. The following applies: for MIC: Staphylococcus aureus, MRSA ATCC 43300, mean (n = 2), read-out: MIC MRSA.
The test system of data set [2] is Escherichia coli ATCC 25922. Description: MIC, CO-ADD broth microdilution. It is filed as cell-based. The following applies: ATCC25922, mean (n = 2).
In data set [3] the test system is Pseudomonas aeruginosa PAO1 or ATCC 27853. Briefly: MIC, broth dilution (CA-SFM). It is filed as cell-based. The following applies: mean (n = 3).
Data set [4] has as its system Klebsiella pneumoniae ATCC700603. Description: MIC, CO-ADD broth microdilution. It is filed as cell-based. The following applies: mean (n = 2).
For data set [5], the system named is Acinetobacter baumannii ATCC19606. Briefly: MIC, CO-ADD broth microdilution. It is filed as cell-based. Conditions: mean (n = 2).
In data set [6] the test system is Candida albicans ATCC90028. Description: Antifungal MIC, CO-ADD. It is filed as cell-based. The following applies: mean (n = 2). How it is done:
(§1) For the antifungal assay, fungi strains were cultured for 3 days on YPD agar at 30 °C. A yeast suspension of 1 × 10^6 to 5 × 10^6 CFU/mL was prepared from five colonies. These stock suspensions were diluted with yeast nitrogen base (YNB) (Becton Dickinson, 233520) broth to a final concentration of 2.5 × 10^3 CFU/mL. […] Plates were covered and incubated at 35 °C for 36 h without shaking. C. albicans MICs were determined by measuring the absorbance at OD530. […] Fluconazole was used as a positive fungal inhibitor standard for C. albicans and C. neoformans. […] Quality control (QC) of the assays was determined by antimicrobial controls and Z’-factor (using positive and negative controls).

Data set [7] deals with Cryptococcus neoformans ATCC208821. Description: Antifungal MIC, CO-ADD. It is filed as cell-based. Conditions: ATCC208821, Cryptococcus neoformans ATCC208821, mean (n = 2). How it is done:
as §1

Data set [8] can be described thus: Cytotoxicity assay (resazurin). It is filed as cell-based, human. Conditions: human; HEK293 cells; mean (n = 2); highest dose tested 32 μg/mL; read-out: Cytotoxicity (concentration of compound at 50% cytotoxicity, IC50). In general terms: Alamar Blue is a resazurin reagent that responds to reducing activity.
A further data set relates to human red blood cells. Description: Hemolytic assay. It is filed as cell-based. Conditions: mean (n = 2). How it is done:
Human whole blood was washed three times with 3 volumes of 0.9% NaCl and then resuspended in same to a concentration of 0.5 × 10^8 cells/mL, as determined by manual cell count in a Neubauer hemocytometer. The washed cells were then added to the 384-well compound-containing plates for a final volume of 50 μL. After a 10 min shake on a plate shaker, the plates were then incubated for 1 h at 37 °C. After incubation, the plates were centrifuged at 1000× g for 10 min to pellet cells and debris; 25 μL of the supernatant was then transferred to a polystyrene 384-well assay plate. Hemolysis was determined by measuring the supernatant absorbance at […] (OD405). The absorbance was measured using a Tecan M1000 Pro monochromator plate reader. HC10 and HC50 (concentration at 10% and 50% hemolysis, respectively) were calculated by curve fitting the inhibition values vs. log (concentration) using a sigmoidal dose–response function with variable fitting values for top, bottom and slope.

Experimental findings from paper PMC10052977, “α,ω-Diacyl-Substituted Analogues of Natural and Unnatural Polyamines: Identification of Potent Bactericides That Selectively Target Bacterial Membranes” (International Journal of Molecular Sciences, 2023) are described below.

By MIC is commonly meant the smallest concentration in the dilution series that meets the test's criterion for growth inhibition.

With `O=C(CC(c1ccccc1)(c1ccccc1)c1ccccc1)NCCCNCCCCCCCNCCCNC(=O)CC(c1ccccc1)(c1ccccc1)c1ccccc1.O=C(O)C(F)(F)F.O=C(O)C(F)(F)F` [Compound 18c, N^1,N^7-Bis(3-(3,3,3-triphenylpropanamido)propyl)heptane-1,7-diaminium 2,2,2-trifluoroacetate], the minimum inhibitory concentration (MIC) in [1] was 1.56 µM; in the data set with MRSA ATCC 43300, < 0.24 µM; in data set [2], 3.84 µM; in data set [3], 100 µM; in [4] it was 30.7 µM; in data set [5], 1.92 µM. The MIC in data set [6] was found to be 3.84 µM; in data set [7], 30.7 µM. The IC50 at 20 h in data set [8] came to 13.2 µM. Besides, the “Hemolysis (HC10, concentration at 10% hemolytic activity)” value in the data set on human red blood cells turned out to be 3.12 µM.
For `O=C(CCc1ccccc1)NCCCNCCCCCCNCCCNC(=O)CCc1ccccc1.O=C(O)C(F)(F)F.O=C(O)C(F)(F)F` [Compound 13b, N^1,N^6-Bis(3-(3-phenylpropanamido)propyl)hexane-1,6-diaminium 2,2,2-trifluoroacetate], the minimum inhibitory concentration (MIC) is > 277 µM in [1]; > 44.3 µM with MRSA ATCC 43300; > 44.3 µM in [2]; > 277 µM in [3]; > 44.3 µM in data set [4]; > 44.3 µM in data set [5]. In addition, the MIC in data set [6] and in [7] was > 44.3 µM in each case. Moreover, the IC50 at 20 h in [8] is > 44.3 µM. For the same compound, the “Hemolysis (HC10, concentration at 10% hemolytic activity)” value with human red blood cells is >44.3 µM.
In the case of `O=C(CC(c1ccccc1)(c1ccccc1)c1ccccc1)NCCCNCCCCNCCCNC(=O)CC(c1ccccc1)(c1ccccc1)c1ccccc1.O=C(O)C(F)(F)F.O=C(O)C(F)(F)F` [Compound 18a, N^1,N^4-Bis(3-(3,3,3-triphenylpropanamido)propyl)butane-1,4-diaminium 2,2,2-trifluoroacetate], the minimal inhibitory concentration (MIC) is 3.12 µM in [1]; < 0.25 µM in the data set on MRSA ATCC 43300; 0.5 µM in [2]; 25 µM in data set [3]; 32 µM in data set [4]; 4 µM in [5]. Further, the minimal inhibitory concentration (MIC) in data set [6] amounted to 8 µM; in [7], 32 µM. Moreover, the IC50 at 20 h in [8] was determined as 18.3 µM. Further, in the data set with human red blood cells, the “Hemolysis (HC10, concentration at 10% hemolytic activity)” value was 1.58 µM.
For `O=C(CC(c1ccccc1)(c1ccccc1)c1ccccc1)NCCCNCCCCCCCCNCCCNC(=O)CC(c1ccccc1)(c1ccccc1)c1ccccc1.O=C(O)C(F)(F)F.O=C(O)C(F)(F)F` [Compound 18d, N^1,N^8-Bis(3-(3,3,3-triphenylpropanamido)propyl)octane-1,8-diaminium 2,2,2-trifluoroacetate], the MIC in data set [1] is 3.12 µM; with MRSA ATCC 43300, < 0.24 µM; in data set [2], 7.58 µM; in data set [3], 200 µM; in [4] it was > 30.3 µM; in [5], 7.6 µM. The values for the minimum inhibitory concentration (MIC) in data set [6] and in data set [7] were < 0.24 µM and 7.6 µM, respectively. Moreover, the IC50 at 20 h in [8] worked out at 9.7 µM. Further, the “Hemolysis (HC10, concentration at 10% hemolytic activity)” value with human red blood cells was determined as 3.17 µM.
As for `O=C(CCC(=O)NCCCc1ccccc1)NCCCNCCCCCCCCCCNCCCNC(=O)CCC(=O)NCCCc1ccccc1.O=C(O)C(F)(F)F.O=C(O)C(F)(F)F` [Compound 14e, N^1,N^10-Bis(3-(4-oxo-4-((3-phenylpropyl)amino)butanamido)propyl)decane-1,10-diaminium 2,2,2-trifluoroacetate], the minimum inhibitory concentration (MIC) was 100 µM in data set [1]; 4.21 µM in the data set on MRSA ATCC 43300; 33.7 µM in [2]; > 200 µM in [3]; > 33.7 µM in data set [4]; > 33.7 µM in data set [5]. The minimal inhibitory concentration (MIC) in data set [6] is > 33.7 µM; in data set [7] it was 33.7 µM. Further, in the data set with MRSA ATCC 43300, the “activity towards MRSA” value is reported as “weak”. For the same compound, the IC50 at 20 h in [8] is > 33.7 µM. Besides, the “Hemolysis (HC10, concentration at 10% hemolytic activity)” value with human red blood cells was >33.7 µM.
As for `O=C(CC(c1ccccc1)(c1ccccc1)c1ccccc1)NCCCNCCCCCCCCCCNCCCNC(=O)CC(c1ccccc1)(c1ccccc1)c1ccccc1.O=C(O)C(F)(F)F.O=C(O)C(F)(F)F` [Compound 18e, N^1,N^10-Bis(3-(3,3,3-triphenylpropanamido)propyl)decane-1,10-diaminium 2,2,2-trifluoroacetate], the MIC in data set [1] is 1.56 µM; with MRSA ATCC 43300, < 0.23 µM; in [2], > 29.5 µM; in data set [3], 200 µM; in [4] it was > 29.5 µM; in data set [5] it was < 0.23 µM. For the same compound, the MIC in data set [6] and in data set [7] was < 0.23 µM each time. Moreover, the IC50 at 20 h in [8] was found to be 7.23 µM. For the same compound, the “Hemolysis (HC10, concentration at 10% hemolytic activity)” value in the data set on human red blood cells is ≤0.231 µM.
Take `Cl.Cl.S=C(NCCCNCCCCCCNCCCNC(=S)NC(c1ccccc1)c1ccccc1)NC(c1ccccc1)c1ccccc1` [Compound 6b, N^1,N^6-Bis(3-(3-benzhydrylthioureido)propyl)hexane-1,6-diaminium chloride]: the minimum inhibitory concentration (MIC) in [1] is > 265 µM; with MRSA ATCC 43300, ≤ 0.33 µM; in [2], ≤ 0.33 µM; in [3], 265 µM; in data set [4] it was > 42.4 µM; in data set [5], 10.7 µM. For the same compound, the minimal inhibitory concentration (MIC) was ≤ 0.33 µM in data set [6] and > 42.4 µM in [7]. The IC50 at 20 h in data set [8] was > 42.4 µM. Besides, the “Hemolysis (HC10, concentration at 10% hemolytic activity)” value in the data set with human red blood cells turned out to be 2.96 µM.
`O=C(CCC(=O)NCCCc1ccccc1)NCCCNCCCCCCCCNCCCNC(=O)CCC(=O)NCCCc1ccccc1.O=C(O)C(F)(F)F.O=C(O)C(F)(F)F` [Compound 14d, N^1,N^8-Bis(3-(4-oxo-4-((3-phenylpropyl)amino)butanamido)propyl)octane-1,8-diaminium 2,2,2-trifluoroacetate]: the MIC in data set [1] is > 100 µM; in the data set on MRSA ATCC 43300 it was > 34.7 µM; in data set [2], > 34.7 µM; in data set [3] it was > 100 µM; in data set [4], > 34.7 µM; in data set [5], > 34.7 µM. The MIC in data set [6] and in data set [7] was > 34.7 µM in each case. In addition, in data set [8], the IC50 at 20 h is > 34.7 µM. Also, the “Hemolysis (HC10, concentration at 10% hemolytic activity)” value with human red blood cells was >34.7 µM.
As for `O=C(CCc1ccccc1)NCCCNCCCCCCCCCCCCNCCCNC(=O)CCc1ccccc1.O=C(O)C(F)(F)F.O=C(O)C(F)(F)F` [Compound 13f, N^1,N^12-Bis(3-(3-phenylpropanamido)propyl)dodecane-1,12-diaminium 2,2,2-trifluoroacetate], the minimal inhibitory concentration (MIC) was 50 µM in data set [1]; 19.8 µM with MRSA ATCC 43300; > 39.7 µM in data set [2]; 300 µM in data set [3]; > 39.7 µM in [4]; > 39.7 µM in data set [5]. The minimal inhibitory concentration (MIC) in data set [6] and in data set [7] was > 39.7 µM each time. Moreover, the “activity towards MRSA” value in the data set on MRSA ATCC 43300 is reported as “weak”. Also, in [8], the IC50 at 20 h is > 39.7 µM. For the same compound, the “Hemolysis (HC10, concentration at 10% hemolytic activity)” value in the data set on human red blood cells was >39.7 µM.
Turning to `O=C(CCC(=O)NCCC(c1ccccc1)c1ccccc1)NCCCNCCCCCCCCCCNCCCNC(=O)CCC(=O)NCCC(c1ccccc1)c1ccccc1.O=C(O)C(F)(F)F.O=C(O)C(F)(F)F` [Compound 16e, N^1,N^10-Bis(3-(4-((3,3-diphenylpropyl)amino)-4-oxobutanamido)propyl)decane-1,10-diaminium 2,2,2-trifluoroacetate], the MIC was 12.5 µM in data set [1]; ≤ 0.23 µM in the data set on MRSA ATCC 43300; 14.5 µM in data set [2]; 200 µM in [3]; 29.1 µM in [4]; 29.1 µM in data set [5]. Further, the MIC in data set [6] was 29.1 µM; in data set [7], ≤ 0.28 µM. For the same compound, the IC50 at 20 h in [8] worked out at 17.3 µM. Besides, the “Hemolysis (HC10, concentration at 10% hemolytic activity)” value in the data set with human red blood cells was 17.9 µM.
Turning to `O=C(NCCCNCCCCCCCCCCCCNCCCNC(=O)C(c1ccccc1)(c1ccccc1)c1ccccc1)C(c1ccccc1)(c1ccccc1)c1ccccc1.O=C(O)C(F)(F)F.O=C(O)C(F)(F)F` [Compound 17f, N^1,N^12-Bis(3-(2,2,2-triphenylacetamido)propyl)dodecane-1,12-diaminium 2,2,2-trifluoroacetate], the MIC in data set [1] was 6.25 µM; in the data set with MRSA ATCC 43300, < 0.23 µM; in data set [2], > 29.5 µM; in [3], 300 µM; in [4] it was > 29.5 µM; in [5], > 29.5 µM. For the same compound, the minimal inhibitory concentration (MIC) in data set [6] and in [7] was < 0.23 µM each time. Besides, the IC50 at 20 h in data set [8] was ≤ 0.231 µM. The “Hemolysis (HC10, concentration at 10% hemolytic activity)” value in the data set on human red blood cells was ≤0.231 µM.
